Data set [1] can be described thus: Hydrolysis in plasma (LC-MS). In kind it is in vitro ADME, human. The procedure: Samples were analysed by LC-MS system, which included Thermo Scientific UltiMate 3000 UHPLC liquid chromatograph and Thermo Scientific Exactive Plus Hybrid Quadrupole-Orbitrap mass spectrometer. The general method used a Waters Acquity UPLC® BEH C18 column (2.1×50 mm, 1.7 μm) and Waters Vanguard UPLC® BEH C18 precolumn (2.1×5 mm, 1.7 μm), thermostated at 40° C., with: injection volume, 1 μL; flow rate, 0.4 mL/min; autosampler temperature: 15° C., detector Full MS-SIM (runtime 1.5-3 min, positive mode, resolution: 70 000; AGC target: 3e^6; maximum IT: 200 ms; scan range: 200-300 m/z); mobile phase A: 0.1% formic acid in MQ water; B: 0.1% formic acid in acetonitrile. Gradient: 0-3 min, 20-75% B; 3-3.1 min 75-95% B; 3.1-4 min 95% B; 4-4.1 min 95-20% B; 4.1-6 min 20% B. Processing: ICIS peak detection algorithm, analyte 6—expected retention time: 1.87 min, 30 s window, mass range 213.14; analyte 7—expected retention time: 2.40 min, 30 s window, mass range 284.18.
To construct the calibration curves, the highest concentration (800 nM) stock solution was prepared in plasma, and serially diluted with plasma to different compound concentrations (8, 20, 40, 60, 80, 200, 400, 600, 800 nM). 50 μL of the respective biological sample were diluted with 200 μL MeOH, vortexed, centrifuged at 4° C. and 5000 rpm for 10 min, the supernatant transferred to HPLC vials with inserts, and analysed. 5 replicates were injected to check the precision, and to ascertain the matrix effects in plasma, 0.5 μL of […] 6 was diluted with 49.5 μL of either plasma or MQ water. […] To monitor the progress of 7 hydrolysis in plasma, 1 vol. % of 7.5 μM 7 stock solution was mixed with plasma, 50 μL aliquots were drawn successively after 1, 5, and 60 min and analysed as described above. In a control experiment, the plasma used was pretreated for 5 min with 1 mM ethopropazine to inhibit BChE, then 7 was added, and the above procedure followed.
(§1) As both 7 and BChE were being depleted, near the final timepoint the reaction rate slowed down considerably. […] 7 is readily hydrolysed in contact with plasma BChE—therefore, after an in vivo application (either parenteral or per os), adrenergic-active moiety 6 should be liberated in the bloodstream, permeate the blood-brain barrier, and reach the site of action in the central nervous system.

For data set [2], the target named is T1, human α2A adrenoreceptor from CHO cells (Homo sapiens, UniProt P08913).
T1 construct: host or cells: CHO cells
T1 sequence (P08913 1-465): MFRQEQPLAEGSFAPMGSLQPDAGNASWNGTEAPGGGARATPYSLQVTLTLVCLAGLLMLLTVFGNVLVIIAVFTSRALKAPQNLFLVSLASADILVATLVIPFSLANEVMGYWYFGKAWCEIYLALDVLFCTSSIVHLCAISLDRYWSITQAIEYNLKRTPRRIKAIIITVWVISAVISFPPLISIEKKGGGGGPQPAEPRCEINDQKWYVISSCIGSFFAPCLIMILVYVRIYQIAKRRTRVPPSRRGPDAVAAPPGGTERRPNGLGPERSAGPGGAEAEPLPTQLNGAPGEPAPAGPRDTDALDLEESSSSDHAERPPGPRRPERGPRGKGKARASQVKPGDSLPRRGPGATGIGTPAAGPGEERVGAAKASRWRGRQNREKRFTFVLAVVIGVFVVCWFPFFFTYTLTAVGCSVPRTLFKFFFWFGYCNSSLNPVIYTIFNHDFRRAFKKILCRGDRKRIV
Put plainly: α2A binding assay (Eurofins), antagonist radioligand [3H]RX821002.
Experimental: In each experiment the respective reference compound (yohimbine) was tested concurrently with the test compounds, and the data were compared with historical values determined at Eurofins. The experiment was accepted in accordance with Eurofins validation Standard Operating Procedure. Inhibition above 50% is considered to represent significant effects of the test compounds. The inhibition constants (Ki) were calculated using the Cheng-Prusoff equation.

Another data set deals with hBChE (Homo sapiens, UniProt P06276). Nature of the data set: Inhibition of cholinesterases, method of Ellman (hBChE). In kind it is biochemical. The following applies: for hBChE time-dependency observed: yes/no: pre-incubation time varied (1, 5, 15, 30 or 60 min); for hBChE RA-residual activity: mean ± standard deviation, test concentration not given. The method, then:
(§2) For time-dependency measurements, the pre-incubation time was varied (1 min, 5 min, 15 min, 30 min or 60 min). The reactions were started by the addition of the substrate (final concentration, 500 μM butyrylthiocholine iodide or acetylthiocholine iodide for hBChE and hAChE, respectively). The final content of DMSO was always 1%. […] The initial velocities in the presence (vi) and absence (vo) of the test compounds were calculated. The inhibitory potencies were expressed as the residual activities, according to RA=(vi−b)/(vo−b), where b is the blank value using phosphate buffer without ChEs. For IC50 determinations, at least seven different concentrations for each compound were used. The IC50 values were obtained by plotting the residual ChE activities against the applied inhibitor concentrations, with the experimental data fitted to a four-parameter logistic function (GraphPad Prism 9.4). Tacrine and donepezil were used as positive controls.

Another data set has as its target hAChE (Homo sapiens, UniProt P22303). Nature of the data set: biochemical. In kind it is biochemical. The procedure:
as §2

Data set [3] is described as follows: Non-enzymatic hydrolysis (aqueous stability). The conditions noted are these: compared with hydrolysis in plasma. The class given is physicochemical. The procedure: Reactions were monitored using analytical thin-layer chromatography (TLC) on silica gel 60 F254 Al plates. Developed plates were inspected under UV light and, if necessary, visualized with ninhydrin, vanillin/sulfuric acid, Dragendorff's or potassium permanganate stains. Melting points were determined with Büchi 535 Melting Point Apparatus (uncorrected). Nuclear magnetic resonance spectra were recorded on a Bruker Avance III 400 MHz spectrometer at 400 MHz for ^1H, 100 MHz for ^13C, and 376 MHz for ^19F nucleus, respectively, using CDCl3 with TMS as the internal standard as solvent. […] Mass spectra were recorded on Thermo Scientific Q Executive Plus LC-MS/MS spectrometer and IR spectra on Thermo Nicolet FT-IR spectrophotometer. […] The purities of the tested compounds were established to be ≥95%, as determined by UPLC.
as §1

The mark [4] stands for this setting: control plasma with 1 mM ethopropazine, nominal 75 nM 7, timepoint 60 min.
Setting [5] is: hydrolysis of 7 in human plasma, nominal 75 nM, timepoint 1 min.
Where [6] appears, read: hydrolysis of 7 in human plasma, nominal 75 nM, timepoint 5 min.
[7] abbreviates: hydrolysis of 7 in human plasma, nominal 75 nM, timepoint 60 min.
Where [8] appears, read: 5 min preincubation, read-out: hBChE IC50 ± SEM.
Where [9] appears, read: pre-incubation time varied (1, 5, 15, 30 or 60 min).

The term inhibition denotes the relative decrease from the control value, in per cent. Low readings indicate little suppression, high ones strong suppression. For orientation: IC50 means the point on the concentration scale where inhibition reaches its midpoint.

Like-named read-outs stand apart in the source and are kept apart here.

Chain of hBChE (P06276 29-602): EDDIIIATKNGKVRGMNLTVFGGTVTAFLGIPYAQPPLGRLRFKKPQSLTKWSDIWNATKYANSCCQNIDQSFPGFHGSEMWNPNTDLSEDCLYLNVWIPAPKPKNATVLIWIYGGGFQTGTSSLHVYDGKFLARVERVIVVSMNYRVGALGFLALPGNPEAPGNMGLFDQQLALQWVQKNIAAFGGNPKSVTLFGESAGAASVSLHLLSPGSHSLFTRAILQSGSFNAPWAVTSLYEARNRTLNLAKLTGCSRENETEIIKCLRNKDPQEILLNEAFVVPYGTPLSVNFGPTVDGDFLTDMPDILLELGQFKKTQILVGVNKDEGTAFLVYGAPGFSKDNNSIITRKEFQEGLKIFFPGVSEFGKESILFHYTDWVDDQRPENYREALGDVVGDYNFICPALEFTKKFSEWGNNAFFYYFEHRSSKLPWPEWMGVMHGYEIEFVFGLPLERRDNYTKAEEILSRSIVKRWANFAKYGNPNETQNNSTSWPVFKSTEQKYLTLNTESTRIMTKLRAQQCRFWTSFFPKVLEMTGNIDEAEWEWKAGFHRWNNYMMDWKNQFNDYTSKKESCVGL
Chain of hAChE (P22303 32-614): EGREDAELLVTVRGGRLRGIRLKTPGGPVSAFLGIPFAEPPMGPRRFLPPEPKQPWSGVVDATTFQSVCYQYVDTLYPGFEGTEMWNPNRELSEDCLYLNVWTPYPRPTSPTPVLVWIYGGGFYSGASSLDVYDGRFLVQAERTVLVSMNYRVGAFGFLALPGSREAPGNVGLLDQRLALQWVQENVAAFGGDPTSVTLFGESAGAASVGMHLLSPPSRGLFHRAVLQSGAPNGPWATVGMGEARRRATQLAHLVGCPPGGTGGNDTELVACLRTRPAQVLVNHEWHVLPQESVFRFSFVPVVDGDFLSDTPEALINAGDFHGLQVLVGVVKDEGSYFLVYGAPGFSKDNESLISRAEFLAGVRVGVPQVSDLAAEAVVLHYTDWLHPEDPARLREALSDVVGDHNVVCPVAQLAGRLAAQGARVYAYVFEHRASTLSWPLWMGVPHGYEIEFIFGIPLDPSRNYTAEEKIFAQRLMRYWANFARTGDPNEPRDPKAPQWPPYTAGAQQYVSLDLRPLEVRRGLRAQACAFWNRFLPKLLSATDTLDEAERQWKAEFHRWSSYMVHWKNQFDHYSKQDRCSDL

In the case of `CCC1(c2cnc[nH]2)Cc2ccccc2C1` [Compound 6, 4-(2-ethylindan-2-yl)-1H-imidazole], the concentration of analyte in data set [1] (setting [4]) was found to be 9.816 nM; in data set [1] (setting [5]), 15.911 nM; in data set [1] (setting [6]), 29.071 nM; in data set [1] (setting [7]), 65.375 nM.

As for `CCC1(c2cn(C(=O)N(C)C)cn2)Cc2ccccc2C1` [Compound 7, 4-(2-Ethylindan-2-yl)-N,N-dimethyl-1H-imidazole-1-carboxamide], 1 µM produced 6% inhibition in data set [2]. Further, the 50% inhibitory concentration (IC50) was determined as 12.6 ± 2 nM on hBChE (setting [8]) and 30500 ± 6300 nM at hAChE (read-out: hAChE IC50 ± SEM). Besides, the “hBChE time-dependency observed: yes/no” value on hBChE is listed as “yes”. The “hAChE time-dependency observed: yes/no” value at hAChE is on record as 30507 ± 6304 yes. Besides, the non-enzymatic hydrolysis rate entry in data set [3] is “several orders of magnitude slower”. Also, the concentration of analyte amounted to 74.477 nM in data set [1] (control plasma with 1 mM ethopropazine, nominal 75 nM 7, timepoint 1 min); 72.158 nM in data set [1] (control plasma with 1 mM ethopropazine, nominal 75 nM 7, timepoint 5 min); 71.131 nM in data set [1] (setting [4]); 66.508 nM in data set [1] (setting [5]); 55.665 nM in data set [1] (setting [6]); 22.431 nM in data set [1] (setting [7]).

As to `CCN(CC)C(=O)n1cnc(C2(CC)Cc3ccccc3C2)c1` [Compound 8, N,N-diethyl-4-(2-ethylindan-2-yl)-1H-imidazole-1-carboxamide], the concentration for half-maximal inhibition (IC50) on hBChE (setting [8]) is 1460 ± 218 nM. The “hBChE time-dependency observed: yes/no” value on hBChE was “yes”. Besides, at hAChE, the “hAChE IC50 ± SEM” value is “Not active (66.8 ± 4.7%) no” and the “hAChE RA-residual activity” value was “Not active (66.8 ± 4.7%) no”.

As to `CCC1(c2cn(C(=O)N(C)C)c[n+]2C)Cc2ccccc2C1` [Compound 9, 1-(Dimethylcarbamoyl)-4-(2-ethylindan-2-yl)-3-methyl-1H-imidazol-3-ium trifluoromethanesulfonate], the values for the half-maximal inhibitory concentration (IC50) at hBChE and on hAChE were 4.18 ± 0.77 nM and 431 ± 113 nM, respectively. The “hBChE time-dependency observed: yes/no” value at hBChE was “yes”. In addition, the “hAChE time-dependency observed: yes/no” value on hAChE (setting [9]) is listed as “yes”.

`CCC1(c2cn[nH]n2)Cc2ccccc2C1` [Compound 13, 4-(2-Ethylindan-2-yl)-2H-1,2,3-triazole] yielded an inhibition at 1 µM in data set [2] of 6.1%. Besides, on hBChE (5 min preincubation), the “hBChE IC50 ± SEM” value is recorded as “Not active” and the “hBChE RA-residual activity” value amounted to 60.3 ± 1.0%. At hAChE, the “hAChE IC50 ± SEM” value was “Not active (87.3 ± 7.5%)” and the “hAChE RA-residual activity” value is “Not active (87.3 ± 7.5%)”.

As to `CCC1(c2cnn(C(=O)N(C)C)n2)Cc2ccccc2C1` [Compound 14, 4-(2-Ethylindan-2-yl)-N,N-dimethyl-2H-1,2,3-triazole-2-carboxamide], the IC50 on hBChE (setting [8]) was 2.39 ± 0.63 nM; on hAChE (read-out: hAChE IC50 ± SEM), 181 ± 35.5 nM. Further, the “hBChE time-dependency observed: yes/no” value at hBChE was “yes”. In addition, at hAChE, the “hAChE time-dependency observed: yes/no” value is 180.9 ± 35.5 yes.

With `CCC1(c2nc[nH]n2)Cc2ccccc2C1` [Compound 15, 3-(2-Ethylindan-2-yl)-1H-1,2,4-triazole], in data set [2], the inhibition at 1 µM stood at 2.1%. On hBChE (5 min preincubation), the “hBChE IC50 ± SEM” value is “Not active” and the “hBChE RA-residual activity” value is 95.9 ± 6.8%. For the same molecule, at hAChE, the “hAChE IC50 ± SEM” value is “Not active (79.8 ± 7.0%)” and the “hAChE RA-residual activity” value is listed as “Not active (79.8 ± 7.0%)”.

As for `CCC1(c2ncn(C(=O)N(C)C)n2)Cc2ccccc2C1` [Compound 16, 3-(2-Ethylindan-2-yl)-N,N-dimethyl-1H-1,2,4-triazole-1-carboxamide], the half-maximal inhibitory concentration (IC50) on hBChE (setting [8]) was found to be 4.12 ± 0.35 nM; at hAChE (read-out: hAChE IC50 ± SEM) it was 1980 ± 239 nM. For the same molecule, the “hBChE time-dependency observed: yes/no” value at hBChE was “yes”.

In the case of `CCC1(c2cn(C(=O)N(C)Cc3ccccc3)cn2)Cc2ccccc2C1` [Compound 17, N-benzyl-4-(2-ethylindan-2-yl)-N-methyl-1H-imidazole-1-carboxamide], the IC50 on hBChE (setting [8]) was determined as 95.7 ± 17.1 nM. In addition, the “hBChE time-dependency observed: yes/no” value on hBChE was “yes”. Further, the “hAChE RA-residual activity” value at hAChE was 46.4 ± 3.3% yes.

With `CCC1(c2cn(C(=O)N3CCCCC3)cn2)Cc2ccccc2C1` [Compound 18, (4-(2-ethylindan-2-yl)-1H-imidazol-1-yl)(piperidin-1-yl)methanone], the IC50 at hBChE (setting [8]) was found to be 4.8 ± 0.944 nM; at hAChE (read-out: hAChE IC50 ± SEM), 5180 ± 1620 nM. For the same molecule, the “hBChE time-dependency observed: yes/no” value at hBChE is recorded as “yes”.

Turning to `[2H]C([2H])([2H])C([2H])([2H])C1(c2cn(C(=O)N(CC)CC)cn2)Cc2ccccc2C1` [Compound 21, N,N-diethyl-4-(2-(ethyl-d5)indan-2-yl)-1H-imidazole-1-carboxamide], on hBChE (setting [8]), the IC50 was 7830 ± 1320 nM. Moreover, at hBChE, the “hBChE time-dependency observed: yes/no” value is “yes”. The “hAChE RA-residual activity” value at hAChE (5 min preincubation, mean ± standard deviation, test concentration not given) is listed as 58.9 ± 2.3%. In addition, at hAChE (setting [9]), the “hAChE time-dependency observed: yes/no” value was “yes”.

Source of the values: patent US20260183273A1, “N,N-dialkyl-4-(2-ethylindan-2-yl)-1H-imidazole-1-carboxamides and related compounds for treatment of neurodegenerative diseases” (priority 2023, published 2026).
